# Legend:
# [1] = test system: healthy male subjects; assay: Example 5 pupil size; type: in vivo, human; details: IV morphine 10 mg; Example 2 SZO-24 dosage form 2×20 mg
# [2] = test system: healthy male subjects; assay: Example 5 cold pain test; details: 10 mg IV infusion over 15 min
# [3] = analyte in plasma after 40 mg (oxycodone HCl) SZO-24 dosage form
# [4] = test system: Male Sprague-Dawley (SD) rats; assay: Example 8 rat tolerance study, tail-flick assay; details: for Tail flick results: mean ± SD
# Description: The biphasic dosing regimen used subcutaneous (SC) infusion, and the SZO regimen used subcutaneously-implanted ALZET® osmotic pumps. The vehicle control for the study was 0.9% saline.
# The rodent tail-flick assay was used to assess analgesia (antinociception). […] In the assay, rodents are briefly restrained and radiant heat is applied to the tip of the tail. The time it takes for the animal to flick its tail is recorded; a delay in this response compared to pre-dose readings is indicative of antinociception.
# An IITC Model 33 Tail Flick Analgesia Meter was used to apply heat to the animal's tail (IITC Life Science, Woodland Hills, Calif.). […] (this temperature allows pre-warming of the animal's tail to allow for more uniform measurements from day-to-day and test-to-test); • (3) Cutoff Time: 10 seconds (i.e., the length of time from the start of the test until the unit automatically ends the test to prevent tissue damage).
# The animals were briefly restrained in plexiglass restrainers and radiant heat was applied to the tip of the animal's tail (approximately 1-2 cm from the tip). After the temperature reached 30° C., the meter increased the light intensity providing a noxious stimulus to the animal's tail. The time in seconds for the animal to flick its tail was recorded for each animal.
# Tail flick latency values were converted to a percentage of the maximum possible effect (%MPE) using the following formula: %MPE=100×(ΔL/ΔLmax) where: ΔL=Post-dose Latency−Pre-dose Latency, and ΔLmax=Cutoff Time−Pre-dose Latency.
# For the biphasic dosing regimen, the animals were subcutaneously infused using a computer-controlled Harvard syringe pump. […] The animals had catheters implanted subcutaneously with approximately 7 cm of PE 10 tubing. The tubing was secured with sutures and sterile surgical skin glue to prevent accidental removal of the catheter.
# For the SZO dosing regimen, ALZET® osmotic pumps (Model 2ML1) were implanted subcutaneously in the animals. […] For the SZO dosing, the rats were not tethered.
# Male Sprague-Dawley (SD) rats obtained from Charles River (Hollister, Calif.) and weighing at least 200g were used in the experiments. Extra animals were employed in the biphasic dosing regimen to take account of damaged catheters, but only enough animals were dosed on Day +3 to replace the animals with damaged catheters.
# Intuitively, the difference between the effect of the same test on Day +3 and Day −1 should be a direct measure of tolerance. The data collected from rats tested for responses at 0, 0.25, 0.5, 0.75, and 1 mg/kg were thus used to perform the statistical analysis.
# The data (difference between Day +3 and Day −1) were analyzed by the analysis of variance (ANOVA) method. The full variance model consisted of the three primary factors, their first-order interaction terms and their second order interaction term, namely: • dosing regimen, • 3-day treatment, • tail flick testing dose, • dosing regimen×3-day treatment, • dosing regimen×tail flick testing dose, • 3-day treatment×tail flick testing dose, and • dosing regiment×3-day treatment x tail flick testing dose.
# [5] = human plasma; orally administered immediate release oxycodone; cited from earlier work
# [6] = cited from earlier work
structure (smiles),measurement,setting,value
"CN1CC[C@]23c4c5ccc(O)c4O[C@H]2[C@@H](O)C=C[C@H]3[C@H]1C5 [IV morphine, morphine]",pupil size changes,[1],consistent with their respective pharmacokinetic profiles
same,separation from placebo in the cold pain test,[2],did not statistically separate from placebo
COc1ccc2c3c1O[C@H]1C(=O)CC[C@@]4(O)[C@@H](C2)NCC[C@]314 [Noroxycodone],"AUCinf, single dose",[3],421.2 ng·h/mL
same,"Cmax, single-dose plasma concentration",[3],13.12 ng/mL
"COc1ccc2c3c1OC1C(=O)CC[C@@]4(O)[C@@H](C2)N(C)CC[C@]314 (stereo partly shown) [oxycodone, 4,5-epoxy-14-hydroxy-3-methoxy-17-methylmorphinan-6-one]",Tail flick results,"[4]; Biphasic dosing (SC infusion, syringe pump, 10 mg/(kg · d)), 3-day treatment oxycodone, testing dose 0 mg/kg, Day +3, n = 7",1.55 ± 4.70 % MPE
same,Tail flick results,"[4]; Biphasic dosing (SC infusion, syringe pump, 10 mg/(kg · d)), 3-day treatment oxycodone, testing dose 0.25 mg/kg SC, Day +3, n = 8",0.48 ± 2.28 % MPE
same,Tail flick results,"[4]; Biphasic dosing (SC infusion, syringe pump, 10 mg/(kg · d)), 3-day treatment oxycodone, testing dose 0.25 mg/kg SC, Day −1, n = 8",4.75 ± 6.80 % MPE
same,Tail flick results,"[4]; Biphasic dosing (SC infusion, syringe pump, 10 mg/(kg · d)), 3-day treatment oxycodone, testing dose 0.5 mg/kg SC, Day +3, n = 8",10.64 ± 7.72 % MPE
same,Tail flick results,"[4]; Biphasic dosing (SC infusion, syringe pump, 10 mg/(kg · d)), 3-day treatment oxycodone, testing dose 0.5 mg/kg SC, Day −1, n = 8",34.19 ± 28.28 % MPE
same,Tail flick results,"[4]; Biphasic dosing (SC infusion, syringe pump, 10 mg/(kg · d)), 3-day treatment oxycodone, testing dose 0.75 mg/kg SC, Day −1, n = 8",49.32 ± 32.89 % MPE
same,Tail flick results,"[4]; Biphasic dosing (SC infusion, syringe pump, 10 mg/(kg · d)), 3-day treatment oxycodone, testing dose 1 mg/kg SC, Day +3, n = 8",30.73 ± 19.05 % MPE
same,Tail flick results,"[4]; Biphasic dosing (SC infusion, syringe pump, 10 mg/(kg · d)), 3-day treatment oxycodone, testing dose 1 mg/kg SC, Day −1, n = 8",84.61 ± 27.43 % MPE
same,Tail flick results,"[4]; Biphasic dosing (SC infusion, syringe pump, 10 mg/(kg · d)), 3-day treatment oxycodone, testing dose 1.5 mg/kg SC, Day −1, n = 8",100.00 ± 0.00 % MPE
same,Tail flick results,"[4]; Biphasic dosing (SC infusion, syringe pump, 10 mg/(kg · d)), 3-day treatment oxycodone, testing dose 3.0 mg/kg SC, Day +3, n = 8",84.81 ± 26.06 % MPE
same,Tail flick results,"[4]; Biphasic dosing group, 3-day treatment saline, testing dose 0.25 mg/kg SC, Day +3, n = 8",9.25 ± 12.00 % MPE
same,Tail flick results,"[4]; Biphasic dosing group, 3-day treatment saline, testing dose 0.25 mg/kg SC, Day −1, n = 8",13.82 ± 7.87 % MPE
same,Tail flick results,"[4]; Biphasic dosing group, 3-day treatment saline, testing dose 0.5 mg/kg SC, Day +3, n = 8",15.22 ± 12.44 % MPE
same,Tail flick results,"[4]; Biphasic dosing group, 3-day treatment saline, testing dose 0.5 mg/kg SC, Day −1, n = 8",26.59 ± 22.79 % MPE
same,Tail flick results,"[4]; Biphasic dosing group, 3-day treatment saline, testing dose 0.75 mg/kg SC, Day +3, n = 8",48.59 ± 39.89 % MPE
same,Tail flick results,"[4]; Biphasic dosing group, 3-day treatment saline, testing dose 0.75 mg/kg SC, Day −1, n = 8",73.56 ± 28.57 % MPE
same,Tail flick results,"[4]; Biphasic dosing group, 3-day treatment saline, testing dose 1 mg/kg SC, Day +3, n = 7",46.00 ± 18.96 % MPE
same,Tail flick results,"[4]; Biphasic dosing group, 3-day treatment saline, testing dose 1 mg/kg SC, Day −1, n = 7",89.52 ± 20.25 % MPE
same,Tail flick results,"[4]; Biphasic dosing group, 3-day treatment saline, testing dose 1.5 mg/kg SC, Day −1, n = 8",92.48 ± 16.05 % MPE
same,Tail flick results,"[4]; Biphasic dosing group, 3-day treatment saline, testing dose 3.0 mg/kg SC, Day +3, n = 8",92.97 ± 15.65 % MPE
same,Tail flick results,"[4]; SZO dosing (SC ALZET, 10 mg/(kg · d)), 3-day treatment oxycodone, testing dose 0 mg/kg, Day +3, n = 8",−4.75 ± 8.51 % MPE
same,Tail flick results,"[4]; SZO dosing (SC ALZET, 10 mg/(kg · d)), 3-day treatment oxycodone, testing dose 0.25 mg/kg SC, Day +3, n = 8",−2.07 ± 4.18 % MPE
same,Tail flick results,"[4]; SZO dosing (SC ALZET, 10 mg/(kg · d)), 3-day treatment oxycodone, testing dose 0.25 mg/kg SC, Day −1, n = 8",14.72 ± 16.16 % MPE
same,Tail flick results,"[4]; SZO dosing (SC ALZET, 10 mg/(kg · d)), 3-day treatment oxycodone, testing dose 0.5 mg/kg SC, Day +3, n = 8",8.48 ± 17.38 % MPE
same,Tail flick results,"[4]; SZO dosing (SC ALZET, 10 mg/(kg · d)), 3-day treatment oxycodone, testing dose 0.5 mg/kg SC, Day −1, n = 8",33.12 ± 19.58 % MPE
same,Tail flick results,"[4]; SZO dosing (SC ALZET, 10 mg/(kg · d)), 3-day treatment oxycodone, testing dose 0.75 mg/kg SC, Day +3, n = 8",7.90 ± 11.36 % MPE
same,Tail flick results,"[4]; SZO dosing (SC ALZET, 10 mg/(kg · d)), 3-day treatment oxycodone, testing dose 0.75 mg/kg SC, Day −1, n = 8",60.76 ± 31.45 % MPE
same,Tail flick results,"[4]; SZO dosing (SC ALZET, 10 mg/(kg · d)), 3-day treatment oxycodone, testing dose 1 mg/kg SC, Day +3, n = 8",23.75 ± 25.96 % MPE
same,Tail flick results,"[4]; SZO dosing (SC ALZET, 10 mg/(kg · d)), 3-day treatment oxycodone, testing dose 1 mg/kg SC, Day −1, n = 8",80.15 ± 36.76 % MPE
same,Tail flick results,"[4]; SZO dosing (SC ALZET, 10 mg/(kg · d)), 3-day treatment oxycodone, testing dose 1.5 mg/kg SC, Day −1, n = 8",91.44 ± 24.22 % MPE
same,Tail flick results,"[4]; SZO dosing (SC ALZET, 10 mg/(kg · d)), 3-day treatment oxycodone, testing dose 3.0 mg/kg SC, Day +3, n = 8",94.35 ± 11.48 % MPE
same,Tail flick results,"[4]; SZO dosing group, 3-day treatment saline, testing dose 0.25 mg/kg SC, Day +3, n = 8",7.44 ± 11.94 % MPE
same,Tail flick results,"[4]; SZO dosing group, 3-day treatment saline, testing dose 0.25 mg/kg SC, Day −1, n = 8",13.69 ± 8.94 % MPE
same,Tail flick results,"[4]; SZO dosing group, 3-day treatment saline, testing dose 0.5 mg/kg SC, Day +3, n = 8",8.92 ± 11.30 % MPE
same,Tail flick results,"[4]; SZO dosing group, 3-day treatment saline, testing dose 0.5 mg/kg SC, Day −1, n = 8",21.86 ± 13.71 % MPE
same,Tail flick results,"[4]; SZO dosing group, 3-day treatment saline, testing dose 0.75 mg/kg SC, Day +3, n = 8",51.09 ± 46.28 % MPE
same,Tail flick results,"[4]; SZO dosing group, 3-day treatment saline, testing dose 0.75 mg/kg SC, Day −1, n = 8",65.33 ± 32.06 % MPE
same,Tail flick results,"[4]; SZO dosing group, 3-day treatment saline, testing dose 1 mg/kg SC, Day +3, n = 8",35.55 ± 27.94 % MPE
same,Tail flick results,"[4]; SZO dosing group, 3-day treatment saline, testing dose 1 mg/kg SC, Day −1, n = 8",90.33 ± 19.58 % MPE
same,Tail flick results,"[4]; SZO dosing group, 3-day treatment saline, testing dose 1.5 mg/kg SC, Day −1, n = 8",100.00 ± 0.00 % MPE
same,Tail flick results,"[4]; SZO dosing group, 3-day treatment saline, testing dose 3.0 mg/kg SC, Day +3, n = 8",100.00 ± 0.00 % MPE
same,"tolerance, SZO dosing regimen versus biphasic dosing regimen","[4]; full ANOVA model, 158 rats",not statistically significantly different
same,"tolerance, rats treated with oxycodone for 3 days versus saline","[4]; full ANOVA model, p=0.0039",statistically different
same,estimated mean tolerance difference between the SZO dosing regimen and the biphasic dosing regimen,"[4]; reduced ANOVA model, not statistically different at α 0.05",−3.2 %MPE
same,estimated mean tolerance difference (Day +3 minus Day −1) between the oxycodone and saline treated rats,"[4]; reduced ANOVA model, p=0.0035, testing doses 0-1 mg/kg",−10.7 %MPE
same,half-life,[5],about 3.2 hours
same,"onset of action, analgesia occurring",[6]; orally administered,≤ 30 min
same,analgesic action apparent (onset),[6]; parenterally administered,≤ 15 min

# Reference: patent publication US20050106249A1 (priority 2002, published 2005)
